Source: ChEMBL document CHEMBL1126682, “Quinolone antimicrobial agents substituted with morpholines at the 7-position. Syntheses and structure-activity relationships” (J Med Chem, 1993)
In brackets after ≈: the same amount, converted by molar mass.

Key:
[1] = system: Streptococcus pneumoniae; experiment: Minimum inhibition concentration against Streptococcus pneumoniae Type I strain; type: functional
[2] = target: T1, GABA-A receptor; anion channel (Homo sapiens) (UniProt P14867+P47870+P18507+P28472+P48169+Q99928+Q9UN88+P34903+O00591+O14764+Q8N1C3+P18505+P78334+P47869+P31644+Q16445); experiment: Percentage of GABA-induced chloride currents with compound alone at 10 e-4 M; type: functional; conditions: Bull Frog
[3] = system: Escherichia coli; experiment: Minimum inhibitory concentration against Escherichia coli KC14 strain; type: functional
[4] = target: T1, GABA-A receptor; anion channel (Homo sapiens); experiment: Percentage of GABA-induced chloride currents with 10e-4 M 4-biphenylacetic acid; type: functional; conditions: Bull Frog
[5] = target: GABA-A receptor; anion channel; experiment: Inhibition of [3H]muscimol binding to GABA A receptor 4-biphenylacetic acid at 10 e-4 M; type: protein-complex assay; conditions: read-out: IC50
[6] = system: Staphylococcus aureus; experiment: Effective dose against Staphylococcus aureus smith strain in mouse; type: functional
[7] = system: Pseudomonas aeruginosa; experiment: Minimum inhibition concentration against Pseudomonas aeruginosa U-31 strain; type: functional
[8] = system: Staphylococcus aureus; experiment: Minimum inhibition concentration against Staphylococcus aureus FDA209P strain; type: functional
[9] = target: T1, GABA-A receptor; anion channel (Homo sapiens); experiment: Percentage of GABA-induced chloride currents with 10 e-5 M 4-biphenylacetic acid; type: functional; conditions: Bull Frog
[10] = system: Escherichia coli; experiment: Effective dose against Escherichia coli KC14 strain in mouse; type: functional
[11] = system: Escherichia coli; experiment: Minimum inhibition concentration against Escherichia coli NIHJ JC-2 strain; type: functional
[12] = system: Enterococcus faecalis; experiment: Minimum inhibition concentration against Enterococcus faecalis LS-101 strain; type: functional
[13] = system: Mus musculus; experiment: Percentage of mice with convulsion with compound alone at 400 mg/kg; type: functional
[14] = target: GABA-A receptor; anion channel; experiment: Inhibition of [3H]muscimol binding to GABA A receptor with compound alone at 10 e-4 M; type: protein-complex assay
[15] = system: Staphylococcus aureus; experiment: Minimum inhibitory concentration against Staphylococcus aureus Smith; type: functional
[16] = The compound was evaluated for the solubility in water at 25 degrees Centigrade; type: ADME
[17] = system: Mus musculus; experiment: Percentage of mice with convulsion (400 mg/kg fenbufen); type: functional
[18] = target: GABA-A receptor; anion channel; experiment: Inhibition of [3H]muscimol binding to GABA A receptor with 10 e-4 M 4-biphenylacetic acid; type: protein-complex assay
[19] = system: Staphylococcus aureus; experiment: Minimum inhibition concentration against Staphylococcus aureus MRSA strain; type: functional

SMILES	MIC [1] [µg/mL]	Currents [2] [%]	MIC [3] [µg/mL]	Currents [4] [%]	IC50 [5] [µM]	ED50 [6] [mg mouse-1]	MIC [7] [µg/mL]	MIC [8] [µg/mL]	Currents [9] [%]	ED50 [10] [mg mouse-1]	MIC [11] [µg/mL]	MIC [12] [µg/mL]	Convulsion [13] [%]	IC50 [14] [µM]	MIC [15] [µg/mL]	solubility [16] [µg/mL]	Convulsion [17] [%]	IC50 [18] [µM]	MIC [19] [µg/mL]
NCC1CN(c2c(F)cc3c(=O)c(C(=O)O)cn(C4CC4)c3c2F)CCO1 (stereo not given)	0.05 (≈ 0.132 µM)	90	0.05 (≈ 0.132 µM)	72	> 100	0.067	0.78 (≈ 2.06 µM)	0.025 (≈ 0.0659 µM)	90	0.017	0.1 (≈ 0.264 µM)	0.05 (≈ 0.132 µM)	0	> 100	0.012 (≈ 0.0316 µM)	580 (≈ 1530 µM)	0	–	–
CNCC1CN(c2c(F)cc3c(=O)c(C(=O)O)cn(C4CC4)c3c2F)CCO1 (stereo not given)	0.1 (≈ 0.254 µM)	94	0.05 (≈ 0.127 µM)	78	> 100	0.044	3.13 (≈ 7.96 µM)	0.025 (≈ 0.0636 µM)	90	0.024	0.1 (≈ 0.254 µM)	0.1 (≈ 0.254 µM)	0	> 100	0.012 (≈ 0.0305 µM)	630 (≈ 1600 µM)	0	–	–
CCn1cc(C(=O)O)c(=O)c2cc(F)c(N3CCOCC3)cc21	12.5 (≈ 39 µM)	100	–	92	–	–	3.13 (≈ 9.77 µM)	0.2 (≈ 0.624 µM)	100	–	0.78 (≈ 2.44 µM)	3.13 (≈ 9.77 µM)	0	> 100	–	–	0	> 100	0.39 (≈ 1.22 µM)
CCNCC1CN(c2c(F)cc3c(=O)c(C(=O)O)cn(C4CC4)c3c2F)CCO1 (stereo not given)	0.05 (≈ 0.123 µM)	–	–	–	–	–	3.13 (≈ 7.68 µM)	0.1 (≈ 0.245 µM)	–	–	0.1 (≈ 0.245 µM)	0.2 (≈ 0.491 µM)	–	–	–	–	–	–	–
NCC1CN(c2c(F)cc3c(=O)c(C(=O)O)cn(C4CC4)c3c2F)CCCO1 (stereo not given)	1.56 (≈ 3.97 µM)	–	–	–	–	–	6.25 (≈ 15.9 µM)	0.78 (≈ 1.98 µM)	–	–	0.39 (≈ 0.991 µM)	1.56 (≈ 3.97 µM)	–	–	–	–	–	–	–
CC1COc2c(N3CCOC(CN)C3)c(F)cc3c(=O)c(C(=O)O)cn1c23 (stereo not given)	12.5 (≈ 33.1 µM)	–	–	–	–	–	25 (≈ 66.2 µM)	0.78 (≈ 2.07 µM)	–	–	3.13 (≈ 8.29 µM)	3.13 (≈ 8.29 µM)	–	–	–	–	–	–	–
CN(Cc1ccccc1)CC1CN(c2c(F)cc3c(=O)c(C(=O)O)cn(C4CC4)c3c2F)CCO1 (stereo not given)	0.78 (≈ 1.61 µM)	–	–	–	–	–	25 (≈ 51.7 µM)	0.39 (≈ 0.807 µM)	–	–	1.56 (≈ 3.23 µM)	1.56 (≈ 3.23 µM)	–	–	–	–	–	–	–
CN(C)CC1CN(c2c(F)cc3c(=O)c(C(=O)O)cn(C4CC4)c3c2F)CCO1 (stereo not given)	0.05 (≈ 0.123 µM)	91	0.05 (≈ 0.123 µM)	83	> 100	0.035	3.13 (≈ 7.68 µM)	0.025 (≈ 0.0614 µM)	89	0.009	0.2 (≈ 0.491 µM)	0.39 (≈ 0.957 µM)	0	> 100	0.012 (≈ 0.0295 µM)	> 1000	0	–	–
CCn1cc(C(=O)O)c(=O)c2cc(F)c(N3CCNCC3)cc21 [NORFLOXACIN]	3.13 (≈ 9.8 µM)	38	0.05 (≈ 0.157 µM)	–	0.02	1	0.39 (≈ 1.22 µM)	0.39 (≈ 1.22 µM)	0	0.054	0.1 (≈ 0.313 µM)	0.78 (≈ 2.44 µM)	0	13	0.2 (≈ 0.626 µM)	290 (≈ 908 µM)	100	–	12.5 (≈ 39.1 µM)
NCC1CN(c2c(F)cc3c(=O)c(C(=O)O)cn(C4CC4)c3c2Cl)CCO1 (stereo not given)	0.05 (≈ 0.126 µM)	–	–	–	–	–	1.56 (≈ 3.94 µM)	0.012 (≈ 0.0303 µM)	–	–	0.1 (≈ 0.253 µM)	0.05 (≈ 0.126 µM)	–	–	–	–	–	–	–
NCC1CN(c2cc3c(cc2F)c(=O)c(C(=O)O)cn3C2CC2)CCO1 (stereo not given)	0.39 (≈ 1.08 µM)	93	0.1 (≈ 0.277 µM)	81	> 100	0.835	1.56 (≈ 4.32 µM)	0.2 (≈ 0.553 µM)	90	0.139	0.2 (≈ 0.553 µM)	0.2 (≈ 0.553 µM)	0	> 100	0.05 (≈ 0.138 µM)	390 (≈ 1080 µM)	0	–	–
CCn1cc(C(=O)O)c(=O)c2cc(F)c(N3CCOC(CN)C3)c(F)c21 (stereo not given)	0.39 (≈ 1.06 µM)	94	0.39 (≈ 1.06 µM)	79	> 100	0.521	3.13 (≈ 8.52 µM)	0.2 (≈ 0.544 µM)	89	0.232	1.56 (≈ 4.25 µM)	0.39 (≈ 1.06 µM)	0	> 100	0.1 (≈ 0.272 µM)	2900 (≈ 7890 µM)	0	–	–
